Experimental data taken from paper PMC8351955, “Targeting Mycobacterium tuberculosis response to environmental cues for the development of effective antitubercular drugs” (PLoS Biology, 2021).
Read-outs that look alike come from different tables or passages of the source.

Experiments:
Assay in all cases: microbe, parasite or virus in culture
Assay type in all cases: cell-based, Mycobacterium tuberculosis
[1] = tested on: CDC1551(rv2390c′::GFP) reporter Mtb strain, response to high [Cl−]; settings: for activity at 10 µM / activity at 20 µM / IC50: Mycobacterium tuberculosis; for activity at 10 µM / activity at 20 µM: 144 h; for activity at 20 µM: read-out: rv2390c'::GFP validation assay NPA% at 20 µM compound; for IC50: read-out: ShuminTan.MtbChloride.Validation: IC50; for ShuminTan.MtbChloride.Primary: NPI%: primary screen, Sheet2
[2] = tested on: CDC1551(rv1405c′::GFP) reporter Mtb strain; settings: for activity at 10 µM / activity at 20 µM / IC50: Mycobacterium tuberculosis; for activity at 10 µM: read-out: rv1405c'::GFP secondary assay NPA% at 10 µM compound; for activity at 20 µM: read-out: rv1405c'::GFP secondary assay NPA% at 20 µM compound; for IC50: read-out: ShuminTan.MtbChloride.Secondary: IC50
[3] = tested on: Mtb growth in J774 murine macrophage-like cells; settings: Mycobacterium tuberculosis; for inhibition at 10 µM: read-out: J774 tertiary assay % inhibition compared to Rif at 10 µM compound; for IC50: J774 dose response 0.039-20 µM, read-out: ShuminTan.Mtb.Validation.Macrophage: IC50
[4] = pH 6.4, […], DMSO positive control = 100%, read-out: Primary screen rv2390c'::GFP NPA%
[5] = 10 µM, pH 6.4, 250 mM NaCl, 6 days, read-out: rv2390c'::GFP validation assay NPA% at 10 µM compound
[6] = J774, 144 h, read-out: J774 tertiary assay % inhibition compared to Rif at 20 µM compound
[7] = J774, read-out: %inhibition compared to Rif in J774 at 20 uM

CN(CC(O)c1ccccc1Cl)C1CCc2ccccc21 (centres unmarked) [RU-0271187, CN(CC(O)C1=C(Cl)C=CC=C1)C1CCC2=C1C=CC=C2]
activity at 10 µM [1, 4]: 166% | activity at 10 µM [1, 5]: 138 ± 7.4% | activity at 20 µM ([1]; pH 6.4, 250 mM NaCl, 6 days): 207 ± 9.5% | activity at 10 µM [2]: 228 ± 8.7% | activity at 20 µM [2]: 461 ± 7.9% | inhibition at 10 µM ([3]; J774, 144 h): 4.8 ± 0.1% | inhibition at 20 µM [3, 6]: 36.1 ± 0.1%

Cc1cccc(C)c1OC1CCN(c2cncc(C(N)=O)n2)CC1 [RU-0273431, CC1=CC=CC(C)=C1OC1CCN(CC1)C1=NC(=CN=C1)C(N)=O]
activity at 10 µM [1, 4]: 151% | activity at 10 µM [1, 5]: 136 ± 9.1% | activity at 20 µM ([1]; pH 6.4, 250 mM NaCl, 6 days): 135 ± 17.7% | activity at 10 µM [2]: 145 ± 16% | activity at 20 µM [2]: 159 ± 12.5% | inhibition at 10 µM ([3]; J774, 144 h): 21.4 ± 7.4% | inhibition at 20 µM [3, 6]: 34.9 ± 5.2%

Cc1ccc(NS(=O)(=O)c2ccc(C)c(F)c2)c(C(=O)O)c1 [RU-0273440, CC1=CC(C(O)=O)=C(NS(=O)(=O)C2=CC(F)=C(C)C=C2)C=C1]
validation NPI at 10 uM [1]: 60.2 | validation NPI at 20 uM [1]: 37.8 | activity at 10 µM [1, 4]: 49.3% | activity at 10 µM [1, 5]: 60.2 ± 7.2% | activity at 20 µM ([1]; pH 6.4, 250 mM NaCl, 6 days): 37.7 ± 5.2% | IC50 [1]: > 20 µM | ShuminTan.MtbChloride.Primary: NPI% [1]: 49.3142% | rv1405c assay NPI at 10 uM [2]: 34 | rv1405c assay NPI at 20 uM [2]: 23.8 | IC50 [2]: < 0.0391 µM | activity at 10 µM [2]: 33.8 ± 5.6% | activity at 20 µM [2]: 23.3 ± 4.7% | inhibition at 20 µM [3, 7]: 18.3% | IC50 [3]: > 20 µM

N#Cc1nc(NC(=O)c2ccc(N3CCCC3)c(F)c2)[nH]c1C#N [RU-0274370, FC1=C(C=CC(=C1)C(=O)NC1=NC(C#N)=C(N1)C#N)N1CCCC1]
activity at 10 µM [1, 4]: 227% | activity at 10 µM [1, 5]: 143 ± 10% | activity at 20 µM ([1]; pH 6.4, 250 mM NaCl, 6 days): 268 ± 20.8% | activity at 10 µM [2]: 181 ± 7.8% | activity at 20 µM [2]: 363 ± 8.7% | inhibition at 10 µM ([3]; J774, 144 h): 22.2 ± 0.2% | inhibition at 20 µM [3, 6]: 25.3 ± 4.1%

O=C(Nc1ccc(OCC(F)(F)F)nc1)N1CCCCCCC1 [RU-0275323, FC(F)(F)COC1=NC=C(NC(=O)N2CCCCCCC2)C=C1]
validation NPI at 10 uM [1]: 88.4 | validation NPI at 20 uM [1]: 51.1 | activity at 10 µM [1, 4]: 45.1% | activity at 10 µM [1, 5]: 87.5 ± 8% | activity at 20 µM ([1]; pH 6.4, 250 mM NaCl, 6 days): 49.4 ± 7.1% | IC50 [1]: 13 µM | ShuminTan.MtbChloride.Primary: NPI% [1]: 45.0537% | rv1405c assay NPI at 10 uM [2]: 111 | rv1405c assay NPI at 20 uM [2]: 112 | IC50 [2]: < 0.0391 µM | activity at 10 µM [2]: 111 ± 5.5% | activity at 20 µM [2]: 112 ± 10.6% | inhibition at 20 µM [3, 7]: 15.8% | IC50 [3]: > 20 µM

COc1ccc(Cl)c(NS(=O)(=O)c2cnc(Cl)n2C)c1 [RU-0278036, COC1=CC(NS(=O)(=O)C2=CN=C(Cl)N2C)=C(Cl)C=C1]
activity at 10 µM [1, 4]: 48.8% | activity at 10 µM [1, 5]: 87.6 ± 8% | activity at 20 µM ([1]; pH 6.4, 250 mM NaCl, 6 days): 50 ± 7.7% | activity at 10 µM [2]: 75.9 ± 12.9% | activity at 20 µM [2]: 152 ± 19.9% | inhibition at 10 µM ([3]; J774, 144 h): 23.9 ± 12.9% | inhibition at 20 µM [3, 6]: 61.5 ± 2.6%
